Reference: article PMC7351026, “Serum Half-Lives for Short- and Long-Chain Perfluoroalkyl Acids after Ceasing Exposure from Drinking Water Contaminated by Firefighting Foam” (Environmental Health Perspectives, 2020)
Where “and” joins values, the source holds several entries; their conditions need not be identical. Equal entries are not always repeated. Where two headings read alike, the source gives them in different places. Marks after values point to notes of the source that are not given here.

How the values were obtained:
[1] = PFAS levels in serum samples of airport employees (LC/MS/MS); settings: for Serum level in the first samples, median (range) / Relative composition of PFAS in serum, molar concentration basis / Relative composition of PFAS in serum, weight basis / Serum concentration, molar basis / Serum concentration, weight basis: all 26 airport employees; for Relative composition of PFAS in serum, molar concentration basis / Relative composition of PFAS in serum, weight basis: first serum samples; for Serum concentration, molar basis / Serum concentration, weight basis: median of first serum samples
Method in brief: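 Serum from airport employees, drawn after contaminated drinking-water exposure ended, up to five monthly rounds, all reanalyzed in one batch. 25 μL serum precipitated with acetonitrile/methanol plus labeled internal standards; LC/MS/MS on BEH C18 with ammonium acetate/methanol gradient, calibrants prepared in FBS.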

[2] = parameters: method as in Olsen et al. 2009; settings: occupationally exposed workers; ref Olsen et al. 2009; cited from earlier work
[3] = parameters: method as in Zhang et al. 2015; settings: ref Zhang et al. 2015, cited from earlier work
[4] = Background serum PFAS levels in reference population from Karlshamn; type: in vivo, human; settings: human, serum; reference group from Karlshamn without PFAS contamination in drinking water, N=58, sampled 2016; read-out: PFAS serum level, median (range)
Excerpt: For comparison with Swedish general background PFAS serum levels, we referred to the PFAS levels observed in a reference population from Karlshamn, a municipality in southern Sweden without PFAS contamination in the municipal drinking water. In 2016, 226 individuals were sampled. Fifty-nine individuals were randomly selected for analyzing other short-chain PFAS than the legacy ones, using the same modified method as for the airport employees. Fifty-eight individuals within the same age range as the airport employees (i.e., >22 years of age ) were included in the comparison. For a detailed description of this population see Li et al. ([2018]).

[5] = 1st sampling (September 2018), count 17
[6] = 2nd sampling (October 2018), count 17
[7] = 3rd sampling (November, 2018), count 17
[8] = 4th sampling (December 2018), count 16
[9] = 5th sampling (January 2019), count 16
[10] = employees participated in first blood sampling and repeated blood and urine sampling, N=17
[11] = employees participated in first blood sampling only, N=9, 11-14 d after end of exposure

O=S(=O)(O)C(F)(F)C(F)(F)C(F)(F)C(F)(F)F [PFBS, perfluorobutane sulfonic acid]
Serum PFAS level, 25 percentile [1, 5]: 0.32
Serum PFAS level, 75 percentile [1, 5]: 0.68
Serum PFAS level, Max [1, 5]: 1.3
Serum PFAS level, Median [1, 5]: 0.46
Serum PFAS level, Min [1, 5]: 0.22
Serum PFAS level, 25 percentile [1, 6]: 0.11
Serum PFAS level, 75 percentile [1, 6]: 0.31
Serum PFAS level, Max [1, 6]: 0.70
Serum PFAS level, Median [1, 6]: 0.17
Serum PFAS level, Min [1, 6]: < LOD
Serum PFAS level, 25 percentile [1, 7]: < LOD
Serum PFAS level, 75 percentile [1, 7]: 0.28
Serum PFAS level, Max [1, 7]: 0.65
Serum PFAS level, Median [1, 7]: 0.09
Serum PFAS level, Min [1, 7]: < LOD
Serum PFAS level, 25 percentile [1, 8]: < LOD
Serum PFAS level, 75 percentile [1, 8]: 0.24
Serum PFAS level, Max [1, 8]: 0.52
Serum PFAS level, Median [1, 8]: 0.08
Serum PFAS level, Min [1, 8]: < LOD
Serum PFAS level, 25 percentile [1, 9]: < LOD
Serum PFAS level, 75 percentile [1, 9]: 0.11
Serum PFAS level, Max [1, 9]: 0.30
Serum PFAS level, Median [1, 9]: 0.06
Serum PFAS level, Min [1, 9]: < LOD
Serum level in the first samples, median (range) [1]: 0.33 ( <LOD –1.3) ng/mL
PFAS in first serum sample, median (range) [1, 10]: 0.46 ng/mL and 0.46 (0.22–1.3) ng/mL
PFAS in first serum sample, median (range) [1, 11]: 0.10 ( <LOD –1.0)^d ng/mL
Initial serum PFAS level, max ([1]; females (N=7)): 1.3 ng/mL
Initial serum PFAS level, median ([1]; females (N=7)): 0.39 ng/mL
Initial serum PFAS level, min ([1]; females (N=7)): 0.06 ng/mL
Relative composition of PFAS in serum, molar concentration basis [1]: 0.4%
Relative composition of PFAS in serum, weight basis [1]: 0.3%
Initial serum PFAS level, Max ([1]; males (N=19)): 1.1 ng/mL
Initial serum PFAS level, Min ([1]; males (N=19)): < LOD
Initial serum PFAS level, median ([1]; males (N=19)): 0.32 ng/mL
Serum concentration, molar basis [1]: 0.0011
Serum concentration, weight basis [1]: 0.33
Serum level, average [2]: 397 ng/mL

O=C(O)C(F)(F)C(F)(F)C(F)(F)C(F)(F)C(F)(F)C(F)(F)C(F)(F)F [PFOA, perfluorooctanoic acid]
Urine/serum ratio ([3]; nonpregnant women): 0.0028
Urine/serum ratio ([3]; pregnant women): 0.0011
Serum PFAS level, 25 percentile [1, 5]: 8.7
Serum PFAS level, 75 percentile [1, 5]: 16
Serum PFAS level, Max [1, 5]: 31
Serum PFAS level, Median [1, 5]: 13
Serum PFAS level, Min [1, 5]: 5.0
Serum PFAS level, 25 percentile [1, 6]: 8.3
Serum PFAS level, 75 percentile [1, 6]: 14
Serum PFAS level, Max [1, 6]: 28
Serum PFAS level, Median [1, 6]: 11
Serum PFAS level, Min [1, 6]: 4.1
Serum PFAS level, 25 percentile [1, 7]: 7.9
Serum PFAS level, 75 percentile [1, 7]: 14
Serum PFAS level, Max [1, 7]: 28
Serum PFAS level, Median [1, 7]: 11
Serum PFAS level, Min [1, 7]: 4.6
Serum PFAS level, 25 percentile [1, 8]: 7.5
Serum PFAS level, 75 percentile [1, 8]: 13
Serum PFAS level, Max [1, 8]: 27
Serum PFAS level, Median [1, 8]: 10
Serum PFAS level, Min [1, 8]: 4.3
Serum PFAS level, 25 percentile [1, 9]: 8.0
Serum PFAS level, 75 percentile [1, 9]: 14
Serum PFAS level, Max [1, 9]: 27
Serum PFAS level, Median [1, 9]: 10
Serum PFAS level, Min [1, 9]: 4.4
Serum level in the first samples, median (range) [1]: 9.1 (2.9–31) ng/mL
PFAS in first serum sample, median (range) [1, 10]: 13 (5.0–31) ng/mL
PFAS in first serum sample, median (range) [1, 11]: 6.5 (2.9–11) ng/mL
Initial serum PFAS level, max ([1]; females (N=7)): 20 ng/mL
Initial serum PFAS level, median ([1]; females (N=7)): 6.7 ng/mL
Initial serum PFAS level, min ([1]; females (N=7)): 5.0 ng/mL
Relative composition of PFAS in serum, molar concentration basis [1]: 8.1%
Relative composition of PFAS in serum, weight basis [1]: 8.2%
Initial serum PFAS level, Max ([1]; males (N=19)): 31 ng/mL
Initial serum PFAS level, Min ([1]; males (N=19)): 2.9 ng/mL
Initial serum PFAS level, median ([1]; males (N=19)): 11 ng/mL
Serum concentration, molar basis [1]: 0.022
Serum concentration, weight basis [1]: 9.1
Serum level, median (range) ([1]; second to fifth samplings, 17 airport employees): 10 (4.1–28) ng/mL
concentration at 2016 calendar year of sampling [4]: 1.5 ng/mL
